Reference: PubChem BioAssay (NCI)
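All cell lines were grown in 96-well plates and treated with compound for 48 hours. At the GI50, growth is halved. TGI is the concentration that stops growth completely.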

What was measured:
Assay in all cases: inhibition of tumour cell growth, NCI panel, 48 h; in the data active = GI50 below about 0.43 µM; inactive = the rest
[1] = tested on: NCI-H23 lung
[2] = tested on: NCI/ADR-RES ovarian
[3] = tested on: SN12C renal
[4] = tested on: SK-MEL-2 melanoma
[5] = tested on: MDA-MB-231 breast
[6] = tested on: LOX IMVI melanoma
[7] = tested on: OVCAR-4 ovarian
[8] = tested on: DU-145 prostate
[9] = tested on: SK-MEL-28 melanoma
[10] = tested on: SR leukemia
[11] = tested on: HS 578T breast
[12] = tested on: HCT-15 colon
[13] = tested on: SF-268 CNS
[14] = tested on: HCC-2998 colon
[15] = tested on: MOLT-4 leukemia
[16] = tested on: OVCAR-5 ovarian
[17] = tested on: RPMI-8226 leukemia
[18] = tested on: OVCAR-8 ovarian
[19] = tested on: MALME-3M melanoma
[20] = tested on: UACC-62 melanoma
[21] = tested on: IGROV1 ovarian
[22] = tested on: SF-295 CNS
[23] = tested on: HL-60(TB) leukemia
[24] = tested on: NCI-H226 lung
[25] = tested on: SF-539 CNS
[26] = tested on: KM12 colon
[27] = tested on: MDA-MB-435
[28] = tested on: SW-620 colon
[29] = tested on: HOP-92 NSCLC
[30] = tested on: NCI-H460 lung
[31] = tested on: SNB-75 CNS
[32] = tested on: BT-549 breast
[33] = tested on: A549 NSCLC
[34] = tested on: OVCAR-3 ovarian
[35] = tested on: EKVX NSCLC
[36] = tested on: K-562 leukemia
[37] = tested on: TK-10 renal
[38] = tested on: SK-MEL-5 melanoma
[39] = tested on: SK-OV-3 ovarian
[40] = tested on: U251 CNS
[41] = tested on: M14 melanoma
[42] = tested on: 786-0 renal
[43] = tested on: MCF7 breast
[44] = tested on: COLO 205 colon
[45] = tested on: SNB-19 CNS
[46] = tested on: CCRF-CEM leukemia
[47] = tested on: UACC-257 melanoma
[48] = tested on: CAKI-1 renal
[49] = tested on: HCT-116 colon
[50] = tested on: ACHN renal
[51] = tested on: NCI-H522 lung
[52] = tested on: HT29 colon
[53] = tested on: T-47D breast
[54] = tested on: A498 renal
[55] = tested on: UO-31 renal
[56] = tested on: HOP-62 NSCLC
[57] = tested on: PC-3 prostate

Cc1ccc(S(=O)(=O)N(CCOc2ccc(/C(N)=N/Cl)cc2)CCOc2ccc(/C(N)=N\Cl)cc2)cc1
26.8 µM: TGI [38]
64.5 µM: TGI [20]
83.6 µM: TGI [19]
20.1 µM: TGI [31]
25.2 µM: TGI [30]
89.3 µM: TGI [29]
93.2 µM: TGI [35]
22.7 µM: TGI [11]
24 µM: TGI [36]
16.8 µM: TGI [40]
36.6 µM: TGI [32]
40.1 µM: TGI [1]
31 µM: TGI [34]
33.2 µM: TGI [56]
76.4 µM: TGI [51]
46.3 µM: TGI [14]
81.7 µM: TGI [53]
> 100 µM: TGI [2] | TGI [3] | TGI [4] | TGI [5] | TGI [6] | TGI [7] | TGI [9] | TGI [10] | TGI [12] | TGI [15] | TGI [16] | TGI [17] | TGI [18] | TGI [24] | TGI [27] | TGI [28] | TGI [33] | TGI [37] | TGI [39] | TGI [41] | TGI [42] | TGI [43] | TGI [45] | TGI [46] | TGI [48] | TGI [49] | TGI [50] | TGI [52] | TGI [54] | TGI [55] | TGI [57]
20 µM: TGI [13]
90.5 µM: TGI [47]
28.1 µM: TGI [26]
inactive: GI50 [1] 12 µM | GI50 [2] > 100 µM | GI50 [3] 5.52 µM | GI50 [4] > 100 µM | GI50 [5] 44.4 µM | GI50 [6] 16.7 µM | GI50 [7] 16.7 µM | GI50 [8] 16.1 µM | GI50 [9] 25.7 µM | GI50 [10] 27.8 µM | GI50 [11] 4.28 µM | GI50 [12] > 100 µM | GI50 [13] 5.76 µM | GI50 [14] 18.2 µM | GI50 [15] 30.6 µM | GI50 [16] > 100 µM | GI50 [17] 8.99 µM | GI50 [18] 12 µM | GI50 [19] 19.6 µM | GI50 [20] 19 µM | GI50 [21] 11.7 µM | GI50 [22] 7.71 µM | GI50 [23] 7.65 µM | GI50 [24] 59.6 µM | GI50 [25] 11 µM | GI50 [26] 12.4 µM | GI50 [27] 21.8 µM | GI50 [28] 26.9 µM | GI50 [29] 17.2 µM | GI50 [30] 5.62 µM | GI50 [31] 4.92 µM | GI50 [32] 14.1 µM | GI50 [33] 4.88 µM | GI50 [34] 5.99 µM | GI50 [35] 18.4 µM | GI50 [36] 4.17 µM | GI50 [37] 40 µM | GI50 [38] 10.3 µM | GI50 [39] 83.3 µM | GI50 [40] 3.91 µM | GI50 [41] 35.1 µM | GI50 [42] 34.6 µM | GI50 [43] 8.08 µM | GI50 [44] 11 µM | GI50 [45] 5.65 µM | GI50 [46] 11.6 µM | GI50 [47] 23.3 µM | GI50 [48] 76.6 µM | GI50 [49] 12.7 µM | GI50 [50] > 100 µM | GI50 [51] 13.3 µM | GI50 [52] 9.8 µM | GI50 [53] 15.3 µM | GI50 [54] 52.3 µM | GI50 [55] > 100 µM | GI50 [56] 12 µM | GI50 [57] 33.7 µM
40.7 µM: TGI [21]
48 µM: TGI [8]
48.6 µM: TGI [23]
27.2 µM: TGI [25]
28.8 µM: TGI [44]
42.9 µM: TGI [22]
